Structures can show the parent of a compound that is named as a salt. Where two headings read alike, the source gives them in different places.

Data set [1] in a line: Pharmacokinetic evaluation in SD rats (iv and oral). The data set is classed as in vivo, Sprague Dawley rats. To be noted: male, Sprague-Dawley, rat, plasma; for half-life: read-out: Half life T1/2 (PO) (converted); for clearance: read-out: Clearance rate CL; for Vd: read-out: Distribution in tissue Vdss; for bioavailability: read-out: Bioavailability F; for Cmax: read-out: Peak concentration Cmax. On the procedure: Assay Example 2: Pharmacokinetic Evaluation of Compounds in Rats
Object of the assay: To evaluate the in vivo pharmacokinetics of the compounds in SD rats
Sprague Dawley rats (male, 200-300 g, 7-9 weeks old, Shanghai SLAC)
The pharmacokinetic characteristics of the compounds in rodents after intravenous injection and oral administration were assayed according to the standard protocol. In the assay, the candidate compounds were formulated into clear solutions and administered to rats by single intravenous injection and oral administration. The vehicle for intravenous injection and oral administration was DMSO and 10% hydroxypropyl β-cyclodextrin in water (DMSO:10% hydroxypropyl β-cyclodextrin in water=5:95). Whole blood samples were collected within 48 hours, and centrifuged at 3000 g for 15 minutes. The supernatant was separated to give plasma samples. 4 times the volume of acetonitrile solution containing internal standard was added to precipitate protein. The resulting mixture was centrifuged and the supernatant was taken out. An equal volume of water was added and the mixture was centrifuged. The supernatant was taken out, and injected as a sample to quantitatively analyze the plasma drug concentration by LC-MS/MS analysis method. The pharmacokinetic parameters, such as peak concentration, time to peak, clearance rate, half-life, area under drug-time curve, bioavailability, etc., were calculated.

For data set [2], the target named is T1, S1P1 (Homo sapiens, UniProt P21453).
T1 construct: host or cells: U2OS
T1 sequence (P21453 whole entry): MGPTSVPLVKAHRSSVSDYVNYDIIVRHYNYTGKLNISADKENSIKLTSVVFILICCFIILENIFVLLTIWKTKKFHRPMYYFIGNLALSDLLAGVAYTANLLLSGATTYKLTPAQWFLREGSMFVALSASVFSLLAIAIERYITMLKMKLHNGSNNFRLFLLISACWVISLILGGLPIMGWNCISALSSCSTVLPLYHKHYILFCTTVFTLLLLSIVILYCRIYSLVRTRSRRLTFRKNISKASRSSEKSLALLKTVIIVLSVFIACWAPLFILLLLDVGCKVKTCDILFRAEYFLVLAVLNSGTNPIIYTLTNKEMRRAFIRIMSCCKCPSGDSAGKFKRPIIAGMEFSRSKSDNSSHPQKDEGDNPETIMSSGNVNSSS
Briefly: In vitro agonistic activity on S1P1, U2OS-EDG1 cells, LiveBLAzer FRET B/G. To be noted: for Emax: % Effect. The class given is cell-based. The method, then: Assay Example 1: In Vitro Evaluation of the Agonistic Activity of the Compounds of the Present Disclosure on S1P1
Object of the assay: To detect the agonistic activity of compounds on S1P1
• 1. Cells U2OS-EDG1 (Batch No.: Invitrogen-K1520) were taken out of a liquid nitrogen tank and placed in a 37° C. water bath to thaw quickly; • 2. The cell suspension was aspirated into a 15 ml centrifuge tube, resuspended in 5 ml of preheated medium, and centrifuged at 1000 rpm for 5 min; • 3. The supernatant was discarded. The cells were resuspended in 10 ml of medium, transferred into a T75 culture flask, and cultivated in an incubator with 5% CO2 at 37° C. II. Agonist Assay • 1. The compounds were diluted to working concentrations, and serially diluted 3-fold by Echo 555 (manufacturer: Labcyte) to obtain 10 concentrations; 200 nL of each concentration of the compound was transferred to a cell plate and centrifuged at 1000 rpm for 15 seconds; • 2. Culture medium was aspirated from the culture flask; 4 mL of Dulbecco's phosphate buffer (DPBS, supplier: Coring, item No.: 21-031-CVR, batch No.: 03318006) was added, and the residual serum was washed away; 2 mL of trypsin was added; The mixture was incubated in an incubator at 37° C. for 2 min, and the cells were digested; 10 mL of seeding medium was added to resuspend the cells; 0.6 mL of cell suspension was taken out and counted; • 3. The density of cells was adjusted to 1.88E+05 cells/mL using seeding medium, with 40 μL per well (7500\well); 40 μL of FreeStyle™ Expression medium was added around the cell plate; The plate was let stand at room temperature for 15 min and incubated at 37° C. with 5% CO2 for 20 hours. III. Signal Detection • 1. LiveBLAzer™-FRET B/G Substrate (CCF4-AM) assay reagents were formulated according to the instructions; • 2. 8 μL of 6×Substrate Mixture was added to each well of the cell plate; The plate was centrifuged at 1000 rpm for 15 seconds, covered with a film, and incubated at 23° C. for 2 hours; The cell plate was subjected to Envision […] detection. IV. Data Analysis • 1. The raw data were converted into % Effect by using an equation, and the EC50 value can be obtained by curve fitting with four parameters [“log(agonist) vs. response—Variable slope” model in GraphPad Prism]; • 2. Calculation formula: Ratio=(460 nm−blank)/(535 nm−blank) % Effect=(SampleRatio−Ave LCRatio)/(Ave HCRatio−Ave LCRatio)×100%

Where [3] appears, read: intravenous, iv 1.0, po 2.0 mg/kg.
Where [4] appears, read: po, 2 mg/kg, iv 1.0, po 2.0 mg/kg, PO, read-out: Area under drug-time curve AUC0-last PO.

Turning to `CC(=NOCc1ccc(OC(C)C)c(C(F)(F)F)c1)c1ccc2c(c1)CCC2N1CC(C(=O)O)C1` (single isomer, unassigned) [Compound 32A], the half-life in data set [1] (intravenous, 1 mg/kg, iv 1.0 mg/kg only (head prints PO)) is 7.5 h. Moreover, the AUC(0-t) in data set [1] (iv, 1 mg/kg, iv 1.0 mg/kg, read-out: Area under drug-time curve AUC0-last iv) worked out at 6.84 µM·h. In data set [1] (iv, 1 mg/kg, iv 1.0 mg/kg), the clearance came to 4.5 mL/min/kg and the Vd was determined as 2.78 L/kg. In data set [2], the EC50 came out at 3.84 nM and the maximum response (Emax) amounted to 101%.

In the case of `C/C(=N\OCc1ccc(C2CCCCC2)c(C(F)(F)F)c1)c1ccc2c(c1)CC(NCCC(=O)O)C2` (stereo not drawn) [Compound 1 trifluoroacetate], in data set [2], the half-maximal effective concentration (EC50) stood at 41.6 nM and the maximal response (Emax) worked out at 88.4%.

In the case of `C/C(=N\OCc1ccc(C2CCCCC2)c(C(F)(F)F)c1)c1ccc2c(c1)CCC2NCC1(C(=O)O)CC1` (stereo not drawn) [Compound 3 trifluoroacetate], the AUC(0-t) in data set [1] (iv 1.4, po 2.7 mg/kg, PO, read-out: Area under drug-time curve AUC0-last PO) turned out to be 7.05 µM·h. In addition, the half-life in data set [1] (iv 1.4, po 2.7 mg/kg, PO) was 11.3 h. Also, in data set [1] (iv 1.4, po 2.7 mg/kg), the bioavailability turned out to be 59.3%, the clearance was determined as 6.87 mL/min/kg, the Vd was 5.47 L/kg and the Cmax worked out at 393 nM. Moreover, in data set [2], the midpoint of the response, the EC50, lay at 5.77 nM and the Emax is 95%.

In the case of `C/C(=N\OCc1ccc(OC(C)C)c(C(F)(F)F)c1)c1ccc2c(c1)CCC2NCC(=O)O` (stereo not drawn) [Compound 10 hydrochloride], in data set [2], the concentration giving a half-maximal response (EC50) was 57.2 nM and the Emax came to 84.2%.

As to `C/C(=N\OCc1ccc(C2CCCCC2)c(C(F)(F)F)c1)c1ccc2c(c1)CCC2N(C)CCC(=O)O` (stereo not drawn) [Compound 11 trifluoroacetate], the AUC(0-t) in data set [1] (iv 1.2, po 2.4 mg/kg, PO, read-out: Area under drug-time curve AUC0-last PO) stood at 11.3 µM·h. The half-life in data set [1] (iv 1.2, po 2.4 mg/kg, PO) is 9.08 h. In data set [1] (iv 1.2, po 2.4 mg/kg), the bioavailability came out at 64%, the clearance amounted to 4.24 mL/min/kg, the Vd worked out at 3.32 L/kg and the Cmax turned out to be 605 nM. In data set [2], this compound registered a concentration for a half-maximal effect (EC50) of 4.97 nM and a maximum response (Emax) of 97.4%.

In data set [2], `C/C(=N\OCc1ccc(OCC(C)C)c(C(F)(F)F)c1)c1ccc2c(c1)CCC2NCC1(C(=O)O)CC1` (stereo not drawn) [Compound 13 hydrochloride] showed an EC50 of 14.1 nM and an Emax of 102%.

In data set [2], `C/C(=N\OCc1ccc(OCC2CC2)c(C(F)(F)F)c1)c1ccc2c(c1)CCC2NCC1(C(=O)O)CC1` (stereo not drawn) [Compound 14 hydrochloride] yielded a concentration giving a half-maximal response (EC50) of 27.4 nM and a maximal effect (Emax) of 113%.

In data set [2], `C/C(=N\OCc1ccc(C2CCCCC2)c(C(F)(F)F)c1)c1ccc2c(c1)CCC2NCCC(=O)O` (stereo not drawn) [Compound 20] displayed an EC50 of 8.92 nM and a maximum response (Emax) of 51%.

As to `C/C(=N\OCc1ccc(OCC2CC2)c(C(F)(F)F)c1)c1ccc2c(c1)CCC2N(C)CCC(=O)O` (stereo not drawn) [Compound 21], in data set [1] (setting [3]), the clearance stood at 5.43 mL/min/kg and the Vd stood at 2.05 L/kg. In data set [1] (iv 1.0, po 2.0 mg/kg), the bioavailability stood at 53.2% and the Cmax was 486 nM. The AUC(0-t) in data set [1] (setting [4]) was 6.13 µM·h. Also, in data set [2], the EC50 is 12.3 nM and the Emax turned out to be 106%.

In data set [2], `C/C(=N\OCc1ccc(OCC(C)C)c(C(F)(F)F)c1)c1ccc2c(c1)CCC2N(C)CCC(=O)O` (stereo not drawn) [Compound 22 formate] returned a concentration giving a half-maximal response (EC50) of 19.2 nM and a maximal response (Emax) of 107%.

In data set [2], `C/C(=N\OCc1ccc(OC(F)F)c(C(F)(F)F)c1)c1ccc2c(c1)CCC2N1CC(C(=O)O)C1` (stereo not drawn) [Compound 28] returned an EC50 of 23.1 nM and an Emax of 121%.

As for `C/C(=N\OCc1ccc(OCC(C)C)c(C(F)(F)F)c1)c1ccc2c(c1)CCC2N1CC(C(=O)O)C1` (stereo not drawn) [Compound 29], in data set [1] (setting [3]), the clearance is 3.68 mL/min/kg and the Vd came out at 2.24 L/kg. In addition, in data set [1] (iv 1.0, po 2.0 mg/kg), the bioavailability was determined as 59.4% and the Cmax amounted to 615 nM. Besides, the AUC(0-t) in data set [1] (setting [4]) amounted to 9.52 µM·h. For the same compound, in data set [2], the EC50 is 8.62 nM and the Emax amounted to 103%.

In the case of `C/C(=N\OCc1ccc(C2CCCCC2)c(C(F)(F)F)c1)c1ccc2c(c1)CCC2N1CC(C(=O)O)C1` (stereo not drawn) [Compound 30], in data set [1] (setting [3]), the clearance is 3.93 mL/min/kg and the Vd was 4.19 L/kg. Also, in data set [1] (iv 1.0, po 2.0 mg/kg), the bioavailability came to 62.1% and the Cmax is 478 nM. In addition, in data set [1] (setting [4]), the AUC(0-t) was 7.54 µM·h. Moreover, in data set [2], the concentration giving a half-maximal response (EC50) was found to be 16.5 nM and the maximal effect (Emax) was found to be 63.4%.

For `C/C(=N\OCc1ccc(OC2CCCC2)c(C(F)(F)F)c1)c1ccc2c(c1)CCC2N1CC(C(=O)O)C1` (stereo not drawn) [Compound 31], in data set [1] (setting [3]), the clearance was 2.87 mL/min/kg and the Vd came to 0.88 L/kg. Also, in data set [1] (iv 1.0, po 2.0 mg/kg), the bioavailability is 80.9% and the Cmax is 1660 nM. For the same compound, in data set [1] (setting [4]), the AUC(0-t) was 18.6 µM·h. Besides, in data set [1] (po, 2 mg/kg, iv 1.0, po 2.0 mg/kg, PO), the half-life was 4.6 h. In data set [2], this compound gave an EC50 of 10.3 nM and an Emax of 105%.

As to `C/C(=N\OCc1ccc(OCC2CC2)c(C(F)(F)F)c1)c1ccc2c(c1)CCC2N1CC(C(=O)O)C1` (stereo not drawn) [Compound 33], in data set [2], the half-maximal effective concentration (EC50) was determined as 2.98 nM and the Emax stood at 110%.

As to `C/C(=N\OCc1ccc(OC(C)C)c(C(F)(F)F)c1)c1ccc2c(c1)CCC2N(C)CCC(=O)O` (stereo not drawn) [Compound 35], in data set [2], a half-maximal effect (EC50) was put at 6.88 nM and the maximal effect (Emax) was 101%.
